How the values were obtained:
[1] = biological target: T1, recombinant human CD38 (hCD38) (Homo sapiens, UniProt P28907); experiment: CD38 cyclase activity, recombinant hCD38 (NGD substrate); assay type: biochemical; conditions: sUA 0–500 μM, Figure 1B
T1 construct: the commercial recombinant hCD38 without a transmembrane region was partially used in this study; purchased Sino Biological 10818-H08H
T1 sequence (P28907 43-300 limits assumed): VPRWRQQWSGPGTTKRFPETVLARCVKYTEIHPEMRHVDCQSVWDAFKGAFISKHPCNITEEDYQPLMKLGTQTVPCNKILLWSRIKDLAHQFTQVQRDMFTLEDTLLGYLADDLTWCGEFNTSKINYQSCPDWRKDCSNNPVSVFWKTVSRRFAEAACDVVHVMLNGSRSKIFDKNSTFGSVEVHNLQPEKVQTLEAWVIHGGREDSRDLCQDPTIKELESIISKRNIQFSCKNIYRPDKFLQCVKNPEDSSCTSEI
Method: The cyclase activity of CD38 was measured as previously described ([Higashida et al., 1999]; [Jin et al., 2007]). CD38 cyclase activity was measured using 60 μM NGD as a substrate in cyclase reaction buffer (100 mM KCl, 10 μM CaCl2, and 50 mM Tris-HCl, pH 6.6). Tissues were cut into pieces and suspended in the buffer (5 mM MgCl2, 10 mM Tris-HCl, pH 7.3) at 4°C for 30 min. Then, the suspension was homogenized on ice, and the supernatant was collected after centrifugation. To collect the crude membrane fractions, the supernatant was centrifuged at 105,000×g for 30 min. The final pellet was resuspended in 10 mM Tris-HCl solution (pH 6.6) for cyclase assay. Homogenates of THP-1 or A549 cells, and recombinant hCD38 were used directly for cyclase assays. The loading volume of enzyme was 4–20 μL, the total volume of reaction system was 3 mL. To detect enzyme inhibition, except when specified, the ligands were directly dissolved in cyclase reaction buffer before pH adjustment, after which, the pH was immediately adjusted to 6.6. […]
(§1) The reaction buffer for hydrolase or cyclase assays was excited at 300 nm, and fluorescence emission was measured every second at 410 nm by Shimazu RF-6000 spectrofluorometer. Hydrolase or cyclase activity was calculated from the linear portion of the time course by fitting a linear function to the data points recorded within 5 min.

[2] = biological target: T1, recombinant human CD38 (hCD38); experiment: CD38 hydrolase activity, recombinant hCD38 (ε-NAD+ substrate); assay type: biochemical; conditions: sUA 0–500 μM, Figure 1B
Method: The hydrolase activity of CD38 was measured according to a previous report ([de Oliveira et al., 2018]) with minor modifications. CD38 hydrolase activity was measured using 50 μM ε-NAD^+ as a substrate in hydrolase reaction buffer (250 mM sucrose, 40 mM Tris-HCl, pH 7.4). Briefly, cells or tissues were directly homogenized in blank reaction buffer on ice, and recombinant hCD38 was diluted in blank reaction buffer for subsequent assays. The tissue homogenates were centrifuged to collect the supernatant for enzyme assays. The loading volume of enzyme was 4–30 μL, the total volume of the reaction system was 3 mL. To detect enzyme inhibition, except when specified, the ligands were directly dissolved in hydrolase reaction buffer before pH adjustment, after which, the pH was immediately adjusted to 7.4. All reaction buffers, with or without ligands, were freshly prepared before each assay. For measurement of hydrolase activity, 3 mL reaction buffer containing enzyme, ε-NAD^+, and ligands at indicated concentrations was maintained at 37°C with constant stirring.
as §1

recombinant hCD38 = biological target: T2, recombinant hCD38 (Homo sapiens, UniProt P28907); experiment: Metabolic assay of NAD+ (degradation by recombinant hCD38); assay type: biochemical; conditions: sUA 100, 200 or 500 μM; NAD+ 200 μM; hCD38 20 ng/mL; Figure 3F
T2 construct: the commercial recombinant hCD38 without a transmembrane region was partially used in this study; purchased Sino Biological 10818-H08H
T2 sequence (P28907 43-300 limits assumed): T1 sequence (P28907 43-300 limits assumed)
Method: NAD^+ degradation by recombinant hCD38 was detected in hydrolase reaction buffer. At first, sUA (100, 200, and 500 μM) or other ligands at 500 μM in hydrolase reaction buffer (250 mM sucrose, 40 mM Tris) was freshly prepared, then the pH was immediately adjusted to 7.4 by HCl. Recombinant hCD38 was added into the buffer of experimental groups at 20 ng/mL, then the buffer was maintained at 37°C. The substrate NAD^+ was dissolved in hydrolase reaction buffer (pH 7.4) at 10 mM, and the pH was further adjusted to 7.4. The reaction was started with the addition of NAD^+ in the buffer for each group (final concentration is 200 μM), including control group (recombinant hCD38 free). All the buffers were incubated at 37°C with constant stirring. […]
As mentioned above, samples (cells, tissues, blood, or reaction buffer) were treated with ice-cold PCA, after extraction and centrifugation, the collected supernatant was appropriately diluted in 5% ice-cold PCA when applicable, and then was vortexed for 30 s and centrifuged at 15,000 rpm, 4°C for 5 min. […] All the samples after handling were immediately analyzed in this study without freezing and thawing.
The LC-MS/MS system consisted of a triple quadrupole LCMS-8050 (Shimadzu) and an LC-30A system (Shimadzu). […] NAD^+ and NMN were measured independently in this study, as their peaks were hardly separated within a short time.

[3] = biological target: T3, poly(ADP-ribose) polymerase (PARP) (Homo sapiens, UniProt P09874); experiment: PARP activity (colorimetric kit); assay type: biochemical; conditions: Figure 3—figure supplement 2C
T3 construct: purchased R&D Systems 4677-096-K
T3 sequence (P09874 whole entry): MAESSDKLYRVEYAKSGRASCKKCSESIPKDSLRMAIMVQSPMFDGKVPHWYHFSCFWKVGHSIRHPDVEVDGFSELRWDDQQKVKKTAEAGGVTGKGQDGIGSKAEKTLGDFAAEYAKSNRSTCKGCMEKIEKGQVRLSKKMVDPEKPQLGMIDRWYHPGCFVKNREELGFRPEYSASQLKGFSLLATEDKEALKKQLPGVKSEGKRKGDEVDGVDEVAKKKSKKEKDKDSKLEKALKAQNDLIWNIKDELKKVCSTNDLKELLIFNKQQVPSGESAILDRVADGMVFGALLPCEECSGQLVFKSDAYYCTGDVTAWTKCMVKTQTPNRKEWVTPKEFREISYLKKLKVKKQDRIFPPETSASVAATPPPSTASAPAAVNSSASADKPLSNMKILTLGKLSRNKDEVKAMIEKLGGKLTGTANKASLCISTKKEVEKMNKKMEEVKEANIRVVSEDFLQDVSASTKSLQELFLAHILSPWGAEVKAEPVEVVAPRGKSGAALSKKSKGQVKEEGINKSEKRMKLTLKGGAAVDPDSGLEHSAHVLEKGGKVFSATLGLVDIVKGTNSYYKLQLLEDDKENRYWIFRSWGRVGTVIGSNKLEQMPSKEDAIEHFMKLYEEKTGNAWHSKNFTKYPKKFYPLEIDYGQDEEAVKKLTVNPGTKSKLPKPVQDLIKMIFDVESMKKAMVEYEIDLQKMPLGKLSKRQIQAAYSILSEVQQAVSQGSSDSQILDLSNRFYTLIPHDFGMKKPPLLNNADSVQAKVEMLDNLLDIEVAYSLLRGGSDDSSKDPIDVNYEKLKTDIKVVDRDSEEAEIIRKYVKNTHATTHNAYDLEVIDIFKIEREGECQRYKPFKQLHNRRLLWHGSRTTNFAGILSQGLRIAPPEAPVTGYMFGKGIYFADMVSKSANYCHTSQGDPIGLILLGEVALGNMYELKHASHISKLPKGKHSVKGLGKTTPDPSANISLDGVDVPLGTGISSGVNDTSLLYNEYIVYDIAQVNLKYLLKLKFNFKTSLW
Method: The activities of NAMPT and PARP were measured using commercial kits, HT Universal Colorimetric PARP Assay Kit, and CycLex NAMPT Colorimetric Assay Kit Ver.2. The solutions of ligands were freshly prepared (pH was adjusted to 7.4) and were immediately used for enzyme assays.

neutrophils = system: neutrophils; design: method as in Ma et al., 2022; conditions: sUA 595 μM; ref Ma et al., 2022; cited from earlier work
uricase = biological target: uricase; design: method as in Fridovich, 1965; conditions: ref Fridovich, 1965; cited from earlier work

Row | Ki [1] | Ki [2] | NAD+ availability, degradation by recombinant hCD38 (recombinant hCD38) | Effect on PARP activity [3] | Compound | Neutrophil response to IL-8 (neutrophils) | Ki for uricase (uricase)
1 | 57.1 µM | 65.7 µM | increased NAD^+ availability | without affecting the activities | O=c1[nH]c(=O)c2[nH]c(=O)[nH]c2[nH]1 [sUA, uric acid] | inhibits neutrophils in response to IL-8 | 
2 |  |  |  |  | O=C(O)c1nc(=O)[nH]c(=O)[nH]1 [OA, oxonic acid, reference compound] |  | nanomolar range
